The source of these data is publication PMC3735612, “Functional Identification of Close Proximity Amino Acid Side Chains within the Transmembrane-Spanning Helixes of the P2X2 Receptor” (PLoS ONE, 2013).

Where a chain is given by its changes, count along the chain named.

What all share (experiment): perforated-patch whole-cell voltage clamp, peak ATP-gated current, Hill fit
Format in all cases: cell-based

Experiment [1] deals with T1, rP2X2R (rP2X2R-WT; rP2X2R-T for the C348T background) (Rattus norvegicus, UniProt P49653, C348T/F44C).
T1 construct: gene P2rx2; full-length, C-terminal FLAG tag (DYKDDDDK), transiently expressed in HEK293 cells with EGFP; homotrimer; monomer about 62 kDa on SDS-PAGE; all point mutants made on the C348T (rP2X2R-T) background
T1 sequence (P49653 1-472 F44C/C348T): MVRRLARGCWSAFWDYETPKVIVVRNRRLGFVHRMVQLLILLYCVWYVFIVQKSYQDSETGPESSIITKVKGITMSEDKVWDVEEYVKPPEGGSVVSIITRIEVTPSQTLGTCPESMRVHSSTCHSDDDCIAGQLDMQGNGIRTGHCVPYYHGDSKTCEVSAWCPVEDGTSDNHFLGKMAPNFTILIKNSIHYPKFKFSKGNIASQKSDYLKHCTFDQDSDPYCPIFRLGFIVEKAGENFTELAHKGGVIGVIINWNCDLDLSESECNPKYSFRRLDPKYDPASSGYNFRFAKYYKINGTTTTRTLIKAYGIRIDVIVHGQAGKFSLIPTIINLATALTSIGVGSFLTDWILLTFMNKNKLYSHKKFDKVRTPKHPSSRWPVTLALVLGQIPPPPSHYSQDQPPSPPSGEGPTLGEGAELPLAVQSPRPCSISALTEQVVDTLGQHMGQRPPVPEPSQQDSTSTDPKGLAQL
The source says: (§1) perforated-patch whole-cell voltage clamp, peak ATP-gated current, Hill fit on rP2X2R (rP2X2R-WT; rP2X2R-T for the C348T background)

The target in experiment [2] is T2, rP2X2R (rP2X2R-WT; rP2X2R-T for the C348T background) (Rattus norvegicus, UniProt P49653, C348T/H33A).
T2 construct: gene P2rx2; full-length, C-terminal FLAG tag (DYKDDDDK), transiently expressed in HEK293 cells with EGFP; homotrimer; monomer about 62 kDa on SDS-PAGE; all point mutants made on the C348T (rP2X2R-T) background
T2 sequence (P49653 1-472 H33A/C348T): T1 sequence (P49653 1-472 F44C/C348T) with H33A, C44F
Description: as §1

The target of experiment [3] is T3, rP2X2R (rP2X2R-WT; rP2X2R-T for the C348T background) (Rattus norvegicus, UniProt P49653, C348T/H33A/S345A).
T3 construct: gene P2rx2; full-length, C-terminal FLAG tag (DYKDDDDK), transiently expressed in HEK293 cells with EGFP; homotrimer; monomer about 62 kDa on SDS-PAGE; all point mutants made on the C348T (rP2X2R-T) background
T3 sequence (P49653 1-472 H33A/S345A/C348T): T1 sequence (P49653 1-472 F44C/C348T) with H33A, C44F, S345A
Description: as §1

The target of experiment [4] is T4, rP2X2R (rP2X2R-WT; rP2X2R-T for the C348T background) (Rattus norvegicus, UniProt P49653, C348T/H33C).
T4 construct: gene P2rx2; full-length, C-terminal FLAG tag (DYKDDDDK), transiently expressed in HEK293 cells with EGFP; homotrimer; monomer about 62 kDa on SDS-PAGE; all point mutants made on the C348T (rP2X2R-T) background
T4 sequence (P49653 1-472 H33C/C348T): T1 sequence (P49653 1-472 F44C/C348T) with H33C, C44F
Description: as §1

Experiment [5] deals with T5, rP2X2R (rP2X2R-WT; rP2X2R-T for the C348T background) (Rattus norvegicus, UniProt P49653, C348T/H33C/S345C).
T5 construct: gene P2rx2; full-length, C-terminal FLAG tag (DYKDDDDK), transiently expressed in HEK293 cells with EGFP; homotrimer; monomer about 62 kDa on SDS-PAGE; all point mutants made on the C348T (rP2X2R-T) background
T5 sequence (P49653 1-472 H33C/S345C/C348T): T1 sequence (P49653 1-472 F44C/C348T) with H33C, C44F, S345C
Description: as §1

Experiment [6] deals with T6, rP2X2R (rP2X2R-WT; rP2X2R-T for the C348T background) (Rattus norvegicus, UniProt P49653, C348T/I328A).
T6 construct: gene P2rx2; full-length, C-terminal FLAG tag (DYKDDDDK), transiently expressed in HEK293 cells with EGFP; homotrimer; monomer about 62 kDa on SDS-PAGE; all point mutants made on the C348T (rP2X2R-T) background
T6 sequence (P49653 1-472 I328A/C348T): T1 sequence (P49653 1-472 F44C/C348T) with C44F, I328A
Description: as §1

Experiment [7] deals with T7, rP2X2R (rP2X2R-WT; rP2X2R-T for the C348T background) (Rattus norvegicus, UniProt P49653, C348T/I328C/V48C).
T7 construct: gene P2rx2; full-length, C-terminal FLAG tag (DYKDDDDK), transiently expressed in HEK293 cells with EGFP; homotrimer; monomer about 62 kDa on SDS-PAGE; all point mutants made on the C348T (rP2X2R-T) background
T7 sequence (P49653 1-472 V48C/I328C/C348T): T1 sequence (P49653 1-472 F44C/C348T) with C44F, V48C, I328C
Description: as §1

Experiment [8] addresses T8, rP2X2R (rP2X2R-WT; rP2X2R-T for the C348T background) (Rattus norvegicus, UniProt P49653, C348T/S345A).
T8 construct: gene P2rx2; full-length, C-terminal FLAG tag (DYKDDDDK), transiently expressed in HEK293 cells with EGFP; homotrimer; monomer about 62 kDa on SDS-PAGE; all point mutants made on the C348T (rP2X2R-T) background
T8 sequence (P49653 1-472 S345A/C348T): T1 sequence (P49653 1-472 F44C/C348T) with C44F, S345A
Description: as §1

The target in experiment [9] is T9, rP2X2R (rP2X2R-WT; rP2X2R-T for the C348T background) (Rattus norvegicus, UniProt P49653, C348T/S345C).
T9 construct: gene P2rx2; full-length, C-terminal FLAG tag (DYKDDDDK), transiently expressed in HEK293 cells with EGFP; homotrimer; monomer about 62 kDa on SDS-PAGE; all point mutants made on the C348T (rP2X2R-T) background
T9 sequence (P49653 1-472 S345C/C348T): T1 sequence (P49653 1-472 F44C/C348T) with C44F, S345C
Description: as §1

Usually EC50 stands for the midpoint of the concentration-response curve. A high value points to a less potent agent. Take `Nc1ncnc2c1ncn2[C@@H]1O[C@H](COP(=O)(O)OP(=O)(O)OP(=O)(O)O)[C@@H](O)[C@H]1O` [ATP]: the EC50 in [1] stood at 0.81 ± 0.1 µM; in experiment [2] it was 4.2 ± 0.6 µM; in experiment [3], 35.7 ± 0.5 µM; in experiment [4], 2.3 ± 0.5 µM; in [5] it was 7.3 ± 1.1 µM; in experiment [6], 0.4 ± 0.1 µM. Moreover, the EC50 in [7] came out at 17.8 ± 2 µM; in [8] it was 12.1 ± 0.7 µM; in experiment [9], 6.3 ± 0.9 µM.
